In patent US9394282B2, “Pyrazole carboxamides as Janus kinase inhibitors” (Merck Sharp & Dohme Corp., priority 2011, dated 2016):

What was measured:
JAK1 = JAK1 (Homo sapiens (Human), UniProt P23458); assay: Jak biochemical HTRF assay, JAK1; settings: recombinant purified GST-tagged catalytic domain; HTRF format; [ATP] 31.8 μM
From the text: (§1) Jak Biochemical HTRF Assay Protocol
(§2) Subsequent reagent additions employed an Agilent Bravo.

JAK2 = JAK2 (Homo sapiens (Human), UniProt O60674); assay: Jak biochemical HTRF assay, JAK2; settings: recombinant purified GST-tagged catalytic domain, HTRF format
From the text: as §1, §2

JAK2, sequence (O60674 849-1124): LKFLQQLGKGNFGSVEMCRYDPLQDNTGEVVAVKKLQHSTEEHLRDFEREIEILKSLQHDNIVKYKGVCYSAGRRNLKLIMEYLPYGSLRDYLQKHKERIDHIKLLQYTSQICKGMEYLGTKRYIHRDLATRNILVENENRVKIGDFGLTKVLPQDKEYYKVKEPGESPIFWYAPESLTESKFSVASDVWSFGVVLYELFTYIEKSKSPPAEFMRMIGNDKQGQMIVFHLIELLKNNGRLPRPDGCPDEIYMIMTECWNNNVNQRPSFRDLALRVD
JAK1, sequence (P23458 875-1153): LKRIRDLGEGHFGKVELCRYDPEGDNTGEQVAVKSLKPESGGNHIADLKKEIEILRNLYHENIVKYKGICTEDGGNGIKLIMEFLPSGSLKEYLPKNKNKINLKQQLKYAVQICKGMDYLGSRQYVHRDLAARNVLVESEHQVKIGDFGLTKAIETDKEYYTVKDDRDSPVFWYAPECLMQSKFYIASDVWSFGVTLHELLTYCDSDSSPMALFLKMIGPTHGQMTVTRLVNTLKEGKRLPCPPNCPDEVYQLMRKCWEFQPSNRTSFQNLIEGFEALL

IC50 (JAK1) [nM] | IC50 (JAK2; [ATP] 8.5 μM) [nM] | IC50 (JAK2; [ATP] […]) [nM] | SMILES
6 | 21 |  | CC1(c2ccc(Nc3nn([C@@H]4COCC[C@H]4C#N)cc3C(N)=O)cc2)COC1 (single isomer, unassigned) [Example 9-26, 1-[(3S,4R or 3R,4S)-4-cyanotetrahydro-2H-pyran-3-yl]-3-{[4-(3-methyloxetan-3-yl)phenyl]amino}1H-pyrazole-4-carboxamide]
0.8 | 5 |  | N#C[C@H]1CCOC[C@@H]1n1cc(C(N)=O)c(Nc2ccc(F)nc2)n1 (single isomer, unassigned) [Example 9-29, 1-[(3R,4S or 3S,4R)-4-cyanotetrahydro-2H-pyran-3-yl]-3-[(6-fluoropyridin-3-yl)amino]-1H-pyrazole-4-carboxamide]
83 | 306 |  | N#C[C@H]1CCOC[C@@H]1n1cc(C(N)=O)c(Nc2cncc(F)c2)n1 (single isomer, unassigned) [Example 9-30, 1-[(3R,4S or 3S,4R)-4-cyanotetrahydro-2H-pyran-3-yl]-3-[(5-fluoropyridin-3-yl)amino]-1H-pyrazole-4-carboxamide]
0.9 | 7 |  | N#C[C@@H]1CCOC[C@H]1n1cc(C(N)=O)c(Nc2cncc(F)c2)n1 (single isomer, unassigned) [Example 9-31, 1-[(3S,4R or 3R,4S)-4-cyanotetrahydro-2H-pyran-3-yl]-3-[(5-fluoropyridin-3-yl)amino]-1H-pyrazole-4-carboxamide]
0.07 |  | 0.7 | N#Cc1ccc(Nc2nn([C@H]3COCC[C@@H]3C#N)cc2C(N)=O)cc1 (single isomer, unassigned) [Example 9-35, 3-[(4-cyanophenyl)amino]-1-[(3R, 4S or 3S,4R)-4-cyanotetrahydro-2H-pyran-3-yl]-1H-pyrazole-4-carboxamide]
0.6 | 3 |  | N#C[C@H]1CCOC[C@@H]1n1cc(C(N)=O)c(Nc2ccc(OCC(F)(F)F)nc2)n1 (single isomer, unassigned) [Example 9-36, 1-[(3R,4S or 3S,4R)-4-cyanotetrahydro-2H-pyran-3-yl]-3-{[6-(2,2,2-trifluoroethoxy)pyridin-3-yl]amino}-1H-pyrazole-4-carboxamide]
2 |  | 18 | C[C@@]1(C#N)CS(=O)(=O)C[C@@H]1n1cc(C(N)=O)c(Nc2ccc(F)cc2)n1 (single isomer, unassigned) [Example 14-1, 1-((3R,4R or 3S,4S)-4-Cyano-4-methyl-1,1-dioxidotetrahydrothiophen-3-yl)-3-((4-fluorophenyl)amino)-1H-pyrazole-4-carboxamide]
84 |  | 292 | C[C@@]1(C#N)CS(=O)(=O)C[C@@H]1n1cc(C(N)=O)c(Nc2ccc(F)cc2)n1 (single isomer, unassigned) [Example 14-2, 1-((3R,4R or 3S,4S)-4-Cyano-4-methyl-1,1-dioxidotetrahydrothiophen-3-yl)-3-((4-fluorophenyl)amino)-1H-pyrazole-4-carboxamide]
5 |  | 66 | N#C[C@@H]1CN(CC2CCC2)CC[C@H]1n1cc(C(N)=O)c(Nc2ccc(F)cc2)n1 [Example 6-40, 1-[(3R,4R)-3-cyano-1-(cyclobutylmethyl)piperidin-4-yl]-3-[(4-fluorophenyl)amino]-1H-pyrazole-4-carboxamide]
0.6 |  | 8 | Cc1ncoc1CN1CC[C@@H](C#N)[C@H](n2cc(C(N)=O)c(Nc3ccc(F)cc3)n2)C1 [Example 7-2, 1-{(3S,4R, 3R,4S)-4-cyano-1-[(4-methyl-1,3-oxazol-5-yl)methyl]piperidin-3-yl}-3-[(4-fluorophenyl)amino]-1H-pyrazole-4-carboxamide]
0.5 |  | 6 | C[C@]1(C#N)CS(=O)(=O)CC1n1cc(C(N)=O)c(Nc2ccc(F)cc2)n1 (stereo partly drawn) [Example 13-5, 1-((3S,4R or 3R4S)-4-cyano-4-methyl-1,1-dioxidotetrahydrothiophen-3-yl)-3-((4-fluorophenyl)amino)-1H-pyrazole-4-carboxamide]
